From patent publication US20190030018A1 (Celgene Corporation, priority 2017, published 2019)

Test system: 563 solid tumor cell lines
Test: Luminex assay in PRISM, 5 days treatment (AUC)
Format: cell-based
Design: AUC: scale not given here
Procedure: The AUC values provided in Table 80 below were calculated based on the Median Fluorescent Intensity values, the primary read out of the Luminex assay in PRISM. The following parameters were used in this assay: • 8 point dose was used in triplicate • max concentration of 10 μM was used with serial 4-fold dilutions (low of […]) • 563 adherent cell lines in 23 pools. • treatment duration was 5 days.

`O=C1CCC(N2Cc3cc(CNC(=O)C(F)(F)c4ccc(Cl)cc4)ccc3C2=O)C(=O)N1` (stereo not shown) [Compound 1, 2-(4-chlorophenyl)-N-((2-(2,6-dioxopiperidin-3-yl)-1-oxoisoindolin-5-yl)methyl)-2,2-difluoroacetamide] was tested, and the AUC (HCC1954_BREAST) was 0.8107, the AUC (HCC4006_LUNG) was 0.8403 and the AUC (HCT15_LARGE_INTESTINE) was 0.554. It also gave an AUC (HCT116_LARGE_INTESTINE) of 0.826, an AUC (HDQP1_BREAST) of 0.825 and an AUC (HEC1A_ENDOMETRIUM) of 0.832. It also gave an AUC (HEC6_ENDOMETRIUM) of 0.858, an AUC (HEC59_ENDOMETRIUM) of 0.794 and an AUC (HEC108_ENDOMETRIUM) of 0.812. It also gave an AUC (HEC151_ENDOMETRIUM) of 0.903, an AUC (HEC251_ENDOMETRIUM) of 0.698 and an AUC (HEC265_ENDOMETRIUM) of 0.831. The AUC (HEP3B217_LIVER) was 0.596, the AUC (HEPG2_LIVER) was 0.511 and the AUC (HGC27_STOMACH) was 0.846. For the same molecule, the AUC (HLF_LIVER) was 0.952, the AUC (HMC18_BREAST) was 0.847 and the AUC (HOS_BONE) was 0.854. The AUC (HS294T_SKIN) was 0.883, the AUC (HS729_SOFT_TISSUE) was 0.598 and the AUC (HS746T_STOMACH) was 0.428. It also gave an AUC (HS766T_PANCREAS) of 0.830, an AUC (HS852T_SKIN) of 0.710 and an AUC (HS939T_SKIN) of 0.836. The AUC (HS944T_SKIN) was 0.719, the AUC (HSC2_UPPER_AERODIGESTIVE_TRACT) was 0.597 and the AUC (HSC3_UPPER_AERODIGESTIVE_TRACT) was 0.834. For the same molecule, the AUC (HT29_LARGE_INTESTINE) was 0.546, the AUC (HT55_LARGE_INTESTINE) was 0.571 and the AUC (HT144_SKIN) was 0.641. It also gave an AUC (HT1376_URINARY_TRACT) of 0.900, an AUC (HUCCT1_BILIARY_TRACT) of 0.533 and an AUC (HUH1_LIVER) of 0.508. The AUC (HUH6_LIVER) was 0.867, the AUC (HUH28_BILIARY_TRACT) was 0.267 and the AUC (HUPT3_PANCREAS) was 0.876. The AUC (HUPT4_PANCREAS) was 0.5948, the AUC (IALM_LUNG) was 0.2481 and the AUC (IGR37_SKIN) was 0.8495. It also gave an AUC (IGROV1_OVARY) of 0.6978, an AUC (IM95_STOMACH) of 0.111 and an AUC (IPC298_SKIN) of 0.894. The AUC (ISHIKAWAHERAKLIO02ER_ENDOMETRIUM) was 0.8402, the AUC (ISTMES1_PLEURA) was 0.1381 and the AUC (ISTMES2_PLEURA) was 0.8192. It also gave an AUC (J82_URINARY_TRACT) of 0.8263, an AUC (JHH1_LIVER) of 0.469 and an AUC (JHH4_LIVER) of 0.680. The AUC (JHH5_LIVER) was 0.806, the AUC (JHH6_LIVER) was 0.449 and the AUC (JHH7_LIVER) was 0.778. The AUC (JHOC5_OVARY) was 0.865, the AUC (JHOM1_OVARY) was 0.833 and the AUC (JHOS2_OVARY) was 0.566. For the same molecule, the AUC (JHUEM2_ENDOMETRIUM) was 0.761, the AUC (JIMT1_BREAST) was 0.816 and the AUC (JL1_PLEURA) was 0.591. For the same molecule, the AUC (JMSU1_URINARY_TRACT) was 0.842, the AUC (K029AX_SKIN) was 0.834 and the AUC (KALS1_CENTRAL_NERVOUS_SYSTEM) was 0.838. The AUC (KE39_STOMACH) was 0.521, the AUC (KELLY_AUTONOMIC_GANGLIA) was 0.591 and the AUC (KMBC2_URINARY_TRACT) was 0.913. For the same molecule, the AUC (KMRC1_KIDNEY) was 0.842, the AUC (KMRC3_KIDNEY) was 0.990 and the AUC (KMRC20_KIDNEY) was 0.951. It also gave an AUC (KNS42_CENTRAL_NERVOUS_SYSTEM) of 0.826, an AUC (KNS60_CENTRAL_NERVOUS_SYSTEM) of 0.795 and an AUC (KNS62_LUNG) of 0.842. For the same molecule, the AUC (KNS81_CENTRAL_NERVOUS_SYSTEM) was 0.808, the AUC (KP2_PANCREAS) was 0.767 and the AUC (KP3_PANCREAS) was 0.592. The AUC (KP4_PANCREAS) was 0.447, the AUC (KPL1_BREAST) was 0.890 and the AUC (KPNYN_AUTONOMIC_GANGLIA) was 0.648. For the same molecule, the AUC (KU1919_URINARY_TRACT) was 0.926, the AUC (KURAMOCHI_OVARY) was 0.857 and the AUC (KYSE70_OESOPHAGUS) was 0.788. The AUC (KYSE140_OESOPHAGUS) was 0.883, the AUC (KYSE150_OESOPHAGUS) was 0.863 and the AUC (KYSE180_OESOPHAGUS) was 0.865. The AUC (KYSE270_OESOPHAGUS) was 0.835, the AUC (KYSE510_OESOPHAGUS) was 0.870 and the AUC (KYSE520_OESOPHAGUS) was 0.887. It also gave an AUC (LC1SQSF_LUNG) of 0.936, an AUC (LI7_LIVER) of 0.811 and an AUC (LK2_LUNG) of 0.768. The AUC (LN229_CENTRAL_NERVOUS_SYSTEM) was 0.758, the AUC (LNCAPCLONEFGC_PROSTATE) was 0.672 and the AUC (LOXIMVI_SKIN) was 0.905. The AUC (LS180_LARGE_INTESTINE) was 0.142, the AUC (LS411N_LARGE_INTESTINE) was 0.811 and the AUC (LS513_LARGE_INTESTINE) was 0.235. For the same molecule, the AUC (LS1034_LARGE_INTESTINE) was 0.223, the AUC (LU99_LUNG) was 0.421 and the AUC (LXF289_LUNG) was 0.858. It also gave an AUC (MALME3M_SKIN) of 0.180, an AUC (MCAS_OVARY) of 0.845 and an AUC (MCF7_BREAST) of 0.831. For the same molecule, the AUC (MDAMB175VII_BREAST) was 0.524, the AUC (MDAMB231_BREAST) was 0.278 and the AUC (MDAMB435S_SKIN) was 0.845. For the same molecule, the AUC (MELHO_SKIN) was 0.907, the AUC (MELJUSO_SKIN) was 0.845 and the AUC (MEWO_SKIN) was 0.267. The AUC (MFE280_ENDOMETRIUM) was 0.881, the AUC (MFE296_ENDOMETRIUM) was 0.824 and the AUC (MFE319_ENDOMETRIUM) was 0.751. It also gave an AUC (MG63_BONE) of 0.968, an AUC (MHHES1_BONE) of 0.984 and an AUC (MIAPACA2_PANCREAS) of 0.866. It also gave an AUC (MKN1_STOMACH) of 0.871, an AUC (MKN7_STOMACH) of 0.841 and an AUC (MKN45_STOMACH) of 0.338. For the same molecule, the AUC (MKN74_STOMACH) was 0.883.
